Laboratory results taken from PubChem BioAssay (NCI).
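Test compounds were applied to cells in 96-well plates for 48 hours at 5 doses. TGI: total growth inhibition.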

Assays:
Test in all cases: NCI tumour cell line growth inhibition, 48 h
[1] = test system: BT-549 breast
[2] = test system: HOP-62 NSCLC
[3] = test system: HOP-92 NSCLC
[4] = test system: K-562 leukemia
[5] = test system: MCF7 breast
[6] = test system: MDA-MB-231 breast
[7] = test system: MDA-N
[8] = test system: RPMI-8226 leukemia
[9] = test system: SK-MEL-5 melanoma
[10] = test system: SK-OV-3 ovarian
[11] = test system: SN12C renal
[12] = test system: SR leukemia
[13] = test system: T-47D breast
[14] = test system: U251 CNS
[15] = test system: CAKI-1 renal
[16] = test system: HS 578T breast
[17] = test system: LOX IMVI melanoma
[18] = test system: RXF 393 renal
[19] = test system: SF-539 CNS
[20] = test system: SK-MEL-2 melanoma

Row | Compound | TGI [1] | TGI [2] | TGI [3] | TGI [4] | TGI [5] | TGI [6] | TGI [7] | TGI [8] | TGI [9] | TGI [10] | TGI [11] | TGI [12] | TGI [13] | TGI [14] | TGI [15] | TGI [16] | TGI [17] | TGI [18] | TGI [19] | TGI [20]
1 | C=CC1CCC[N+]1(CC(=O)OCC)Cc1ccccc1 (stereo not given) | > 100 µM | > 100 µM | > 100 µM | > 100 µM | > 100 µM | > 100 µM | > 100 µM | > 100 µM | > 100 µM | > 100 µM | > 100 µM | > 100 µM | > 100 µM | > 100 µM | – | – | – | – | – | –
2 | C/C(=N\n1c(Cc2ccccc2)n[nH]c1=O)c1ccccc1 | > 100 µM | – | > 100 µM | > 100 µM | > 100 µM | > 100 µM | > 100 µM | > 100 µM | > 100 µM | – | > 100 µM | – | > 100 µM | > 100 µM | > 100 µM | > 100 µM | > 100 µM | > 100 µM | > 100 µM | > 100 µM
3 | Cc1n[nH]c(=O)n1/N=C/c1ccc(F)cc1 | > 100 µM | > 100 µM | > 100 µM | > 100 µM | – | – | > 100 µM | > 100 µM | – | > 100 µM | > 100 µM | > 100 µM | > 100 µM | – | > 100 µM | – | – | > 100 µM | > 100 µM | –
4 | O=C(CC(C(=O)c1cccs1)c1cccs1)c1ccsc1 (stereo not given) | – | > 100 µM | – | > 100 µM | > 100 µM | > 100 µM | 46.4 µM | > 100 µM | > 100 µM | > 100 µM | > 100 µM | > 100 µM | > 100 µM | > 100 µM | > 100 µM | > 100 µM | > 100 µM | – | > 100 µM | > 100 µM
5 | CN1C/C(=C\c2cccs2)C2=NN(C)C(c3cccs3)C2C1 (stereo not given) | > 100 µM | > 100 µM | > 100 µM | > 100 µM | > 100 µM | > 100 µM | > 100 µM | 95.3 µM | > 100 µM | > 100 µM | > 100 µM | – | > 100 µM | > 100 µM | > 100 µM | > 100 µM | > 100 µM | > 100 µM | – | 81.2 µM
6 | Clc1ccc(OCc2nnc(CCCCCCCCc3nnc(COc4ccc(Cl)cc4Cl)n3Nc3ccccc3)n2Nc2ccccc2)c(Cl)c1 | 49.7 µM | 18.2 µM | 46.3 µM | – | 45.6 µM | 24.4 µM | 27.7 µM | 16.9 µM | 7.05 µM | 39.8 µM | 38.1 µM | – | > 100 µM | 27.1 µM | 49.3 µM | 31.4 µM | 34.3 µM | 40.8 µM | 33.5 µM | 24.8 µM
7 | CN=c1c2c(c3[nH]c4ccccc4c4cnc1c34)NCCC2=O | > 10 µM | > 10 µM | > 10 µM | > 10 µM | > 10 µM | > 10 µM | > 10 µM | > 10 µM | > 10 µM | > 10 µM | > 10 µM | – | > 10 µM | > 10 µM | > 10 µM | > 10 µM | – | > 10 µM | > 10 µM | > 10 µM
8 | CC(C)(Oc1ccccc1)C(=O)Sc1c(-c2ccccc2)c(=O)n(-c2ccccc2)c(=S)n1-c1ccccc1 | – | 52.8 µM | > 100 µM | > 100 µM | > 100 µM | 73.8 µM | > 100 µM | – | – | 87.1 µM | > 100 µM | 57.8 µM | > 100 µM | 56.5 µM | > 100 µM | 85.4 µM | > 100 µM | 63.2 µM | 45.4 µM | –
9 | Cc1cc(C)c(S(=O)(=O)N2CCCN(S(=O)(=O)c3c(C)cc(C)cc3C)OCCCO2)c(C)c1 | > 100 µM | > 100 µM | > 100 µM | > 100 µM | > 100 µM | > 100 µM | > 100 µM | – | > 100 µM | > 100 µM | > 100 µM | – | > 100 µM | > 100 µM | > 100 µM | > 100 µM | > 100 µM | > 100 µM | – | > 100 µM
10 | Cc1ccc(N2C(=O)C=C(C3=C(O)C(=O)N(c4ccc(C)cc4)C3=O)C2=O)cc1 | > 100 µM | > 100 µM | > 100 µM | > 100 µM | > 100 µM | > 100 µM | > 100 µM | > 100 µM | > 100 µM | > 100 µM | > 100 µM | > 100 µM | > 100 µM | > 100 µM | – | – | > 100 µM | – | – | –
11 | COc1ccc(/C=C2\CN(C)C/C(=C\c3ccc(OC)cc3)C2=O)cc1 | – | > 100 µM | > 100 µM | > 100 µM | – | > 100 µM | > 100 µM | > 100 µM | > 100 µM | – | > 100 µM | > 100 µM | > 100 µM | > 100 µM | > 100 µM | > 100 µM | > 100 µM | > 100 µM | > 100 µM | > 100 µM
12 | CC(NO)/C(=N/O)c1ccco1 (stereo not given) | > 10 µM | > 10 µM | > 10 µM | > 10 µM | > 10 µM | > 10 µM | > 10 µM | > 10 µM | – | – | > 10 µM | > 10 µM | > 10 µM | > 10 µM | > 10 µM | – | – | > 10 µM | – | > 10 µM
13 | C=C1C(=O)O[C@@H]2[C@@H]3O[C@@H](C[C@@H]13)[C@](C)(O)CC/C=C(\C)CCC[C@@H]2C | 27.5 µM | 30.5 µM | 29.3 µM | 85.5 µM | 22.1 µM | 37.5 µM | 18.3 µM | 20.6 µM | 30.6 µM | 34 µM | 25.3 µM | – | 43.9 µM | 22.8 µM | 28.6 µM | 37.8 µM | 19.2 µM | 30.1 µM | 24.9 µM | 27.7 µM
14 | CC1(C)CC2=C(Sc3ccccc3N2)C(=O)C1C(=O)C(=O)Nc1cccc([N+](=O)[O-])c1 (stereo not given) | > 100 µM | – | > 100 µM | > 100 µM | > 100 µM | > 100 µM | > 100 µM | > 100 µM | > 100 µM | > 100 µM | > 100 µM | – | > 100 µM | > 100 µM | > 100 µM | > 100 µM | > 100 µM | – | > 100 µM | > 100 µM
15 | COc1cccc(C2c3cc4c(cc3OC(N3CCOCC3)C2C)OCO4)c1OC (stereo not given) | – | 31.6 µM | – | 21.1 µM | > 100 µM | – | 46.9 µM | 24.1 µM | 24.5 µM | – | 48.4 µM | 24.4 µM | 79.1 µM | – | 5.36 µM | 63.5 µM | 12.6 µM | – | 30.5 µM | 25.5 µM
16 | CC1C/C(=C\c2ccc(OC(=O)C(C)(C)C)cc2)C(=O)/C(=C/c2ccc(OC(=O)C(C)(C)C)cc2)C1 (stereo not given) | – | > 100 µM | > 100 µM | > 100 µM | > 100 µM | > 100 µM | > 100 µM | – | > 100 µM | > 100 µM | > 100 µM | > 100 µM | > 100 µM | > 100 µM | > 100 µM | > 100 µM | > 100 µM | 70.9 µM | > 100 µM | > 100 µM
17 | CCOC(=O)CCC(NC(=O)c1ccc(Oc2nc3ccccc3nc2-c2ccccc2)cc1)C(=O)OCC (stereo not given) | – | 45.1 µM | 13.4 µM | > 100 µM | > 100 µM | 65.9 µM | > 85.4 µM | > 100 µM | > 100 µM | > 67.6 µM | > 100 µM | > 100 µM | > 72.1 µM | > 94 µM | > 66.4 µM | 27.3 µM | > 100 µM | > 76.2 µM | 15 µM | > 93 µM
18 | Cc1cccc(C)c1NC(=O)C(=O)CC(=O)/C=C/c1ccccc1 | > 100 µM | > 100 µM | > 100 µM | > 100 µM | > 100 µM | > 100 µM | > 100 µM | > 100 µM | > 100 µM | > 100 µM | > 100 µM | – | > 100 µM | > 100 µM | > 100 µM | > 100 µM | > 100 µM | > 100 µM | > 100 µM | > 100 µM
19 | COc1cccc2c1CCc1cc3c(N)nc(N)nc3nc1-2 | 52.1 µM | 20.1 µM | 32.6 µM | > 21.4 µM | 47.9 µM | 15.9 µM | 18.1 µM | > 100 µM | 10.2 µM | 40.3 µM | 28.1 µM | > 34.5 µM | > 67.7 µM | > 38.3 µM | 45.7 µM | – | 3.34 µM | 26.4 µM | 9.16 µM | 33.9 µM
20 | O=C1c2ccccc2C(=O)N1CC1S(=O)(=O)OCCOS1(=O)=O | – | > 100 µM | > 100 µM | > 100 µM | > 100 µM | > 100 µM | > 100 µM | > 100 µM | > 100 µM | > 100 µM | > 100 µM | > 100 µM | > 100 µM | > 100 µM | > 100 µM | > 100 µM | > 100 µM | > 100 µM | > 100 µM | –
21 | CO[C@@H]1C[C@H]2[C@@H]3CC[C@H]([C@@H](C)CO)[C@@]3(C)CC[C@@H]2[C@@]2(C)CC[C@H]3C[C@]312 | – | > 100 µM | 58.5 µM | 60.5 µM | 31.8 µM | 80.7 µM | > 100 µM | 89.6 µM | 31.1 µM | – | 77.1 µM | > 100 µM | > 100 µM | 27.7 µM | > 100 µM | 82.3 µM | 34.6 µM | 45.6 µM | > 100 µM | –
